Numbers after ± are expanded uncertainties.
Columns and labels:
[1] = 101 kPa, Liquid, Vibrating tube method
[2] = xn = mol fraction of the nth substance listed; details: 101 kPa, Liquid, Vibrating tube method

OCCO [1,2-ethanediol]
mass density ([1]; 278.15 K): 1123.8 ± 1 kg/m3 | mass density ([1]; 323.15 K): 1092.14 ± 1 kg/m3

O [water] + OCCO
mass density ([2]; 278.15 K, x2 = 0): 999.96 ± 1 kg/m3 | mass density ([2]; 323.15 K, x2 = 0): 988.03 ± 1 kg/m3

OCCO [1,2-ethanediol] + O
mass density ([2]; 278.15 K, x1 = 0.02277): 1010.24 ± 1 kg/m3 | mass density ([2]; 278.15 K, x1 = 0.05488): 1023.85 ± 1 kg/m3 | mass density ([2]; 278.15 K, x1 = 0.07829): 1032.87 ± 1 kg/m3 | mass density ([2]; 278.15 K, x1 = 0.1012): 1040.89 ± 1 kg/m3 | mass density ([2]; 278.15 K, x1 = 0.158): 1057.7 ± 1 kg/m3 | mass density ([2]; 278.15 K, x1 = 0.2): 1067.88 ± 1 kg/m3 | mass density ([2]; 278.15 K, x1 = 0.299): 1085.43 ± 1 kg/m3 | mass density ([2]; 278.15 K, x1 = 0.3917): 1096.56 ± 1 kg/m3 | mass density ([2]; 278.15 K, x1 = 0.5006): 1105.57 ± 1 kg/m3 | mass density ([2]; 278.15 K, x1 = 0.6041): 1111.55 ± 1 kg/m3 | mass density ([2]; 278.15 K, x1 = 0.7063): 1115.93 ± 1 kg/m3 | mass density ([2]; 278.15 K, x1 = 0.8049): 1119.14 ± 1 kg/m3 | mass density ([2]; 278.15 K, x1 = 0.9034): 1121.73 ± 1 kg/m3 | mass density ([2]; 278.15 K, x1 = 0.9535): 1122.81 ± 1 kg/m3 | mass density ([2]; 278.15 K, x1 = 0.9826): 1123.42 ± 1 kg/m3 | mass density ([2]; 278.15 K, x1 = 1): 1123.8 ± 1 kg/m3 | mass density ([2]; 288.15 K, x1 = 0.02277): 1008.82 ± 1 kg/m3 | mass density ([2]; 288.15 K, x1 = 0.05488): 1021.56 ± 1 kg/m3 | mass density ([2]; 288.15 K, x1 = 0.07829): 1030.01 ± 1 kg/m3 | mass density ([2]; 288.15 K, x1 = 0.1012): 1037.48 ± 1 kg/m3 | mass density ([2]; 288.15 K, x1 = 0.158): 1053.26 ± 1 kg/m3 | mass density ([2]; 288.15 K, x1 = 0.2): 1062.86 ± 1 kg/m3 | mass density ([2]; 288.15 K, x1 = 0.299): 1079.59 ± 1 kg/m3 | mass density ([2]; 288.15 K, x1 = 0.3917): 1090.28 ± 1 kg/m3 | mass density ([2]; 288.15 K, x1 = 0.5006): 1098.99 ± 1 kg/m3 | mass density ([2]; 288.15 K, x1 = 0.6041): 1104.81 ± 1 kg/m3 | mass density ([2]; 288.15 K, x1 = 0.7063): 1109.12 ± 1 kg/m3 | mass density ([2]; 288.15 K, x1 = 0.8049): 1112.26 ± 1 kg/m3 | mass density ([2]; 288.15 K, x1 = 0.9034): 1114.79 ± 1 kg/m3 | mass density ([2]; 288.15 K, x1 = 0.9535): 1115.88 ± 1 kg/m3 | mass density ([2]; 288.15 K, x1 = 0.9826): 1116.49 ± 1 kg/m3 | mass density ([2]; 298.15 K, x1 = 0.02277): 1006.33 ± 1 kg/m3 | mass density ([2]; 298.15 K, x1 = 0.05488): 1018.45 ± 1 kg/m3 | mass density ([2]; 298.15 K, x1 = 0.07829): 1026.44 ± 1 kg/m3 | mass density ([2]; 298.15 K, x1 = 0.1012): 1033.52 ± 1 kg/m3 | mass density ([2]; 298.15 K, x1 = 0.158): 1048.42 ± 1 kg/m3 | mass density ([2]; 298.15 K, x1 = 0.2): 1057.55 ± 1 kg/m3 | mass density ([2]; 298.15 K, x1 = 0.299): 1073.54 ± 1 kg/m3 | mass density ([2]; 298.15 K, x1 = 0.3917): 1083.85 ± 1 kg/m3 | mass density ([2]; 298.15 K, x1 = 0.5006): 1092.32 ± 1 kg/m3 | mass density ([2]; 298.15 K, x1 = 0.6041): 1098 ± 1 kg/m3 | mass density ([2]; 298.15 K, x1 = 0.7063): 1102.24 ± 1 kg/m3 | mass density ([2]; 298.15 K, x1 = 0.8049): 1105.34 ± 1 kg/m3 | mass density ([2]; 298.15 K, x1 = 0.9034): 1107.84 ± 1 kg/m3 | mass density ([2]; 298.15 K, x1 = 0.9535): 1108.92 ± 1 kg/m3 | mass density ([2]; 308.15 K, x1 = 0.02277): 1002.99 ± 1 kg/m3 | mass density ([2]; 308.15 K, x1 = 0.05488): 1014.58 ± 1 kg/m3 | mass density ([2]; 308.15 K, x1 = 0.07829): 1022.21 ± 1 kg/m3 | mass density ([2]; 308.15 K, x1 = 0.1012): 1028.99 ± 1 kg/m3 | mass density ([2]; 308.15 K, x1 = 0.158): 1043.17 ± 1 kg/m3 | mass density ([2]; 308.15 K, x1 = 0.2): 1051.92 ± 1 kg/m3 | mass density ([2]; 308.15 K, x1 = 0.299): 1067.25 ± 1 kg/m3 | mass density ([2]; 308.15 K, x1 = 0.3917): 1077.24 ± 1 kg/m3 | mass density ([2]; 308.15 K, x1 = 0.5006): 1085.51 ± 1 kg/m3 | mass density ([2]; 308.15 K, x1 = 0.6041): 1091.09 ± 1 kg/m3 | mass density ([2]; 308.15 K, x1 = 0.7063): 1095.28 ± 1 kg/m3 | mass density ([2]; 308.15 K, x1 = 0.8049): 1098.34 ± 1 kg/m3 | mass density ([2]; 308.15 K, x1 = 0.9034): 1100.82 ± 1 kg/m3 | mass density ([2]; 308.15 K, x1 = 0.9535): 1101.89 ± 1 kg/m3 | mass density ([2]; 308.15 K, x1 = 0.9826): 1102.48 ± 1 kg/m3 | mass density ([2]; 323.15 K, x1 = 0.02277): 996.6 ± 1 kg/m3 | mass density ([2]; 323.15 K, x1 = 0.05488): 1007.61 ± 1 kg/m3 | mass density ([2]; 323.15 K, x1 = 0.07829): 1014.78 ± 1 kg/m3 | mass density ([2]; 323.15 K, x1 = 0.1012): 1021.16 ± 1 kg/m3 | mass density ([2]; 323.15 K, x1 = 0.158): 1034.52 ± 1 kg/m3 | mass density ([2]; 323.15 K, x1 = 0.2): 1042.75 ± 1 kg/m3 | mass density ([2]; 323.15 K, x1 = 0.299): 1057.39 ± 1 kg/m3 | mass density ([2]; 323.15 K, x1 = 0.3917): 1067.02 ± 1 kg/m3 | mass density ([2]; 323.15 K, x1 = 0.5006): 1075.02 ± 1 kg/m3 | mass density ([2]; 323.15 K, x1 = 0.6041): 1080.49 ± 1 kg/m3 | mass density ([2]; 323.15 K, x1 = 0.7063): 1084.61 ± 1 kg/m3 | mass density ([2]; 323.15 K, x1 = 0.8049): 1087.65 ± 1 kg/m3 | mass density ([2]; 323.15 K, x1 = 0.9034): 1090.14 ± 1 kg/m3 | mass density ([2]; 323.15 K, x1 = 0.9535): 1091.19 ± 1 kg/m3 | mass density ([2]; 323.15 K, x1 = 0.9826): 1091.78 ± 1 kg/m3 | mass density ([2]; 323.15 K, x1 = 1): 1092.14 ± 1 kg/m3

From the NIST ThermoML archive (doi:10.1016/j.fluid.2013.01.025)
